Test results: patent publication US20240300980A1, “HETEROCYCLIC COMPOUNDS AS KRAS INHIBITOR, AND PREPARATION THEREFOR AND USE THEREOF IN TREATMENT” (SHANGHAI KECHOW PHARMA, INC., priority 2021, published 2024)

Test system: AGS cells (KRAS^G12D)
Assay: Detection of cell proliferation in vitro by MTT/MTS method (cell activity experiment)
Format: cell-based
Settings: AGS cells; MTT/MTS; 3 days of drug treatment; read-out: AGS IC50
Procedure, shortened: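 KRAS G12D AGS cells seeded at 1000 per well, compound added 24 h later, 0.5% final DMSO. Viability read after 3 days of treatment by MTT (solubilised in DMSO) or MTS, 4 h, absorbance 490 nm. IC50 from dose–response curves versus DMSO control.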

| IC50 [nM] | SMILES |
| --- | --- |
| > 2500 | C#Cc1c(F)ccc2cc(O)cc(-c3ccc4c(N5C[C@H]6CC[C@@H](C5)[C@@H]6F)nc(OC[C@@]56CCCN5C[C@H](F)C6)nc4c3F)c12 [Example 123, 5-ethynyl-6-fluoro-4-(8-fluoro-4-((1R,5S, 8R)-8-fluoro-3-azabicyclo[3.2.1]octan-3-yl)-2-(((2R,7aS)-2-fluorotetrahydro-1H-pyrrolizin-7a(5H)-yl)methoxy)quinazolin-7-yl)naphthalen-2-ol] |
| > 2500 | C#Cc1c(F)ccc2cc(O)cc(-c3ccc4c(N5C[C@H]6CC[C@@H](C5)[C@@H]6C#N)nc(OC[C@@]56CCCN5C[C@H](F)C6)nc4c3F)c12 [Example 127, (1R,5S,8S)-3-(7-(8-ethynyl-7-fluoro-3-hydroxynaphthalen-1-yl)-8-fluoro-2-(((2R,7aS)-2-fluorotetrahydro-1H-pyrrolizin-7a(5H)-yl)methoxy)quinazolin-4-yl)-3-azabicyclo [3.2.1]octane-8-carbonitrile] |
| > 2500 | C#Cc1c(F)ccc2cc(O)cc(-c3ccc4c(N5C[C@H]6CC[C@@H](C5)[C@@H]6N)nc(OC[C@@]56CCCN5C[C@H](F)C6)nc4c3F)c12 [Example 128, 4-(4-((1R,5S,8R)-8-amino-3-azabicyclo [3.2.1]octan-3-yl)-8-fluoro-2-(((2R,7aS)-2-fluorotetrahydro-1H-pyrrolizin-7a(5H)-yl)methoxy)quinazolin-7-yl)-5-ethynyl-6-fluoronaphthalen-2-ol] |
| > 2500 | C#Cc1c(F)ccc2cc(O)cc(-c3ccc4c(N5C[C@H]6CC[C@@H](C5)[C@@H]6SC)nc(OC[C@@]56CCCN5C[C@H](F)C6)nc4c3F)c12 [Example 129, 5-ethynyl-6-fluoro-4-(8-fluoro-2-(((2R,7aS)-2-fluorotetrahydro-1H-pyrrolizin-7a(5H)-yl)methoxy)-4-((1R, 5S,8R)-8-(methylthio)-3-azabicyclo[3.2.1]octan-3-yl)quinazolin-7-yl)naphthalen-2-ol] |
| > 2500 | C#Cc1c(F)ccc2cc(O)cc(-c3ccc4c(N5C[C@H]6CC[C@@H](C5)C6[S+](C)[O-])nc(OC[C@@]56CCCN5C[C@H](F)C6)nc4c3F)c12 (stereo partly drawn) [Example 130, 5-ethynyl-6-fluoro-4-(8-fluoro-2-(((2R,7aS)-2-fluorotetrahydro-1H-pyrrolizin-7a(5H)-yl)methoxy)-4-((1R,5S, 8R)-8-(methylsulfinyl)-3-azabicyclo[3.2.1]octan-3-yl)quinazolin-7-yl)naphthalen-2-ol] |
| > 2500 | C#Cc1c(F)ccc2cc(O)cc(-c3ccc4c(N5C[C@H]6CC[C@@H](C5)[C@@H]6S(C)(=O)=O)nc(OC[C@@]56CCCN5C[C@H](F)C6)nc4c3F)c12 [Example 131, 5-ethynyl-6-fluoro-4-(8-fluoro-2-(((2R,7aS)-2-fluorotetrahydro-1H-pyrrolizin-7a(5H)-yl)methoxy)-4-((1R,5S, 8R)-8-(methylsulfonyl)-3-azabicyclo[3.2.1]octan-3-yl)quinazolin-7-yl)naphthalen-2-ol] |
| > 2500 | C#Cc1c(F)ccc2cc(O)cc(-c3ccc4c(N5C[C@H]6CC[C@@H](C5)[C@@H]6S(=O)(=O)C(F)(F)F)nc(OC[C@@]56CCCN5C[C@H](F)C6)nc4c3F)c12 [Example 132, 5-ethynyl-6-fluoro-4-(8-fluoro-2-(((2R,7aS)-2-fluorotetrahydro-1H-pyrrolizin-7a(5H)-yl)methoxy)-4-((1R,5S, 8R)-8-((trifluoromethyl)sulfonyl)-3-azabicyclo [3.2.1]octan-3-yl)quinazolin-7-yl) naphthalen-2-ol] |

Further lines, the molecule ahead of its results:

| SMILES | IC50 [nM] |
| --- | --- |
| CCc1c(F)ccc2cc(O)cc(-c3ccc4c(N5C[C@H]6CC[C@@H](C5)[C@@H]6F)nc(OC[C@@]56CCCN5C[C@H](F)C6)nc4c3F)c12 [Example 124, 5-ethyl-6-fluoro-4-(8-fluoro-4-((1R,5S, 8R)-8-fluoro-3-azabicyclo[3.2.1]octan-3-yl)-2-(((2R,7aS)-2-fluorotetrahydro-1H-pyrrolizin-7a(5H)-yl)methoxy)quinazolin-7-yl)naphthalen-2-ol] | > 2500 |
| C#Cc1cccc2cc(O)cc(-c3ccc4c(N5C[C@H]6CC[C@@H](C5)[C@@H]6F)nc(OC[C@@]56CCCN5C[C@H](F)C6)nc4c3F)c12 [Example 125, 5-ethynyl-4-(8-fluoro-4-((1R,5S,8R)-8-fluoro-3-azabicyclo [3.2.1]octan-3-yl)-2-(((2R,7aS)-2-fluorotetrahydro-1H-pyrrolizin-7a(5H)-yl)methoxy)quinazolin-7-yl)naphthalen-2-ol] | > 2500 |
| Oc1cc(-c2ccc3c(N4C[C@H]5CC[C@@H](C4)[C@@H]5F)nc(OC[C@@]45CCCN4C[C@H](F)C5)nc3c2F)c2c(F)c(F)ccc2c1 [Example 126, 5,6-difluoro-4-(8-fluoro-4-((1R,5S,8R)-8-fluoro-3-azabicyclo [3.2.1]octan-3-yl)-2-(((2R,7aS)-2-fluorotetrahydro-1H-pyrrolizin-7a(5H)-yl)methoxy)quinazolin-7-yl)naphthalen-2-ol] | > 2500 |

Same assay, conditions: Homo sapiens, AGS, 72 h, AGS cells; MTT/MTS; 3 days of drug treatment; read-out: AGS IC50

| IC50 [nM] | SMILES |
| --- | --- |
| > 2500 | C#Cc1c(F)ccc2cc(O)cc(-c3ccc4c(N5C[C@H]6CC[C@@H](C5)C6(F)F)nc(OC[C@@]56CCCN5C[C@H](F)C6)nc4c3F)c12 [Example 119, 4-(4-((1R,5S)-8,8-difluoro-3-azabicyclo [3.2.1]octan-3-yl)-8-fluoro-2-(((2R,7aS)-2-fluorotetrahydro-1H-pyrrolizin-7a(5H)-yl)methoxy)quinazolin-7-yl)-5-ethynyl-6-fluoronaphthalen-2-ol] |
| > 2500 | CCc1c(F)ccc2cc(O)cc(-c3ccc4c(N5C[C@H]6CC[C@@H](C5)C6(F)F)nc(OC[C@@]56CCCN5C[C@H](F)C6)nc4c3F)c12 [Example 120, 4-(4-((1R,5S)-8,8-difluoro-3-azabicyclo [3.2.1]octan-3-yl)-8-fluoro-2-(((2R,7aS)-2-fluorotetrahydro-1H-pyrrolizin-7a(5H)-yl)methoxy)quinazolin-7-yl)-5-ethyl-6-fluoronaphthalen-2-ol] |
| > 2500 | C#Cc1cccc2cc(O)cc(-c3ccc4c(N5C[C@H]6CC[C@@H](C5)C6(F)F)nc(OC[C@@]56CCCN5C[C@H](F)C6)nc4c3F)c12 [Example 121, 4-(4-((1R,5S)-8,8-difluoro-3-azabicyclo [3.2.1]octan-3-yl)-8-fluoro-2-(((2R,7aS)-2-fluorotetrahydro-1H-pyrrolizin-7a(5H)-yl)methoxy)quinazolin-7-yl)-5-ethynylnaphthalen-2-ol] |
| > 2500 | Oc1cc(-c2ccc3c(N4C[C@H]5CC[C@@H](C4)C5(F)F)nc(OC[C@@]45CCCN4C[C@H](F)C5)nc3c2F)c2c(F)c(F)ccc2c1 [Example 122, 4-(4-((1R,5S)-8,8-difluoro-3-azabicyclo [3.2.1]octan-3-yl)-8-fluoro-2-(((2R,7aS)-2-fluorotetrahydro-1H-pyrrolizin-7a(5H)-yl)methoxy)quinazolin-7-yl)-5,6-difluoronaphthalen-2-ol] |
| > 2500 | C#Cc1c(F)ccc2cc(O)cc(-c3ccc4c(N5CCC(C#N)CC5)nc(OC[C@@]56CCCN5C[C@H](F)C6)nc4c3F)c12 [Example 133, 1-(7-(8-ethynyl-7-fluoro-3-hydroxynaphthalen-1-yl)-8-fluoro-2-(((2R, 7aS)-2-fluorotetrahydro-1H-pyrrolizin-7a(5H)-yl)methoxy)quinazolin-4-yl)piperidine-4-carbonitrile] |
| 586 | C#Cc1c(F)ccc2cc(O)cc(-c3ccc4c(N5CC(C#N)C5)nc(OC[C@@]56CCCN5C[C@H](F)C6)nc4c3F)c12 [Example 134, 1-(7-(8-ethynyl-7-fluoro-3-hydroxynaphthalen-1-yl)-8-fluoro-2-(((2R, 7aS)-2-fluorotetrahydro-1H-pyrrolizin-7a(5H)-yl)methoxy)quinazolin-4-yl)azetidine-3-carbonitrile] |
| 1200 | C#Cc1c(F)ccc2cc(O)cc(-c3ccc4c(N5CC6(CNC6)C5)nc(OC[C@@]56CCCN5C[C@H](F)C6)nc4c3F)c12 [Example 135, 5-ethynyl-6-fluoro-4-(8-fluoro-2-(((2R, 7aS)-2-fluorotetrahydro-1H-pyrrolizin-7a(5H)-yl)methoxy)-4-(2,6-diazaspiro[3.3]heptan-2-yl)quinazolin-7-yl)naphthalen-2-ol] |

| SMILES | IC50 [nM] |
| --- | --- |
| C#Cc1c(F)ccc2cc(O)cc(-c3ccc4c(C56CCN(CC5)CC6)nc(OC[C@@]56CCCN5C[C@H](F)C6)nc4c3F)c12 [Example 136, 5-ethynyl-6-fluoro-4-(8-fluoro-2-(((2R,7aS)-2-fluorotetrahydro-1H-pyrrolizin-7a(5H)-yl)methoxy)-4-(quinuclidin-4-yl)quinazolin-7-yl)naphthalen-2-ol] | > 2500 |
| C#Cc1c(F)ccc2cc(O)cc(-c3ccc4c(C5C[C@H]6CC[C@@H](C5)N6)nc(OC[C@@]56CCCN5C[C@H](F)C6)nc4c3F)c12 (stereo partly drawn) [Example 137, 4-(4-((1R,5S)-8-azabicyclo[3.2.1]octan-3-yl)-8-fluoro-2-(((2R,7aS)-2-fluorotetrahydro-1H-pyrrolizin-7a(5H)-yl)methoxy)quinazolin-7-yl)-5-ethynyl-6-fluoronaphthalen-2-ol] | > 2500 |
| C#Cc1cccc2cc(O)cc(-c3ccc4c(C5C[C@H]6CC[C@@H](C5)N6)nc(OC[C@@]56CCCN5C[C@H](F)C6)nc4c3F)c12 (stereo partly drawn) [Example 138, 4-(4-((1R,5S)-8-azabicyclo[3.2.1]octan-3-yl)-8-fluoro-2-(((2R, 7aS)-2-fluorotetrahydro-1H-pyrrolizin-7a(5H)-yl)methoxy)quinazolin-7-yl)-5-ethynylnaphthalen-2-ol] | > 2500 |
| Cc1cc(N)nc(-c2ccc3c(N4C[C@H]5CC[C@@H](C4)N5)nc(OC[C@@]45CCCN4C[C@H](F)C5)nc3c2F)c1C1CC1 [Example 139, 6-(4-((1R,5S)-3,8-diazabicyclo[3.2.1]octan-3-yl)-8-fluoro-2-(((2R,7aS)-2-fluorotetrahydro-1H-pyrrolizin-7a(5H)-yl)methoxy)quinazolin-7-yl)-5-cyclopropyl-4-methylpyridin-2-amine] | > 2500 |
